Holding throughout (assay): DTP human tumour cell line panel, 48 h
Test [1] deals with SF-295.
The test system of test [2] is A498.
Test [3] concerns HT-29.
For test [4], the system named is A549.
For test [5], the system named is NCI-H522.
Test [6] concerns OVCAR-8.
Test [7] deals with HCT-15.
Test [8] concerns NCI-H460.
Test [9] concerns SW-620.
Test [10] deals with EKVX.
Test [11] concerns M14.
Test [12] concerns UACC-62.
In test [13] the test system is HCC 2998.
Test [14] has as its system HCT-116.
Test [15] deals with OVCAR-3.
Test [16] deals with KM12.

Structures are written as SMILES.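 Where inhibition never reached the appropriate level, the endpoint shown equals the highest concentration tested. Otherwise, values were interpolated linearly from a five-concentration, 48-hour dose response in 96-well plates. Here, GI50 denotes the concentration required for 50% inhibition of growth.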 Calls of active or inactive are those of the source. Cut-off read from the data, not from the text of the source: active = GI50 up to about 1.1 µM and inactive = higher.

As usually defined, the GI50 is the concentration giving 50% growth inhibition. `CCOC(=O)C(/C(=N\NC(=O)OC)C(=O)Nc1cc(OC)ccc1OC)c1cnc2ccccc2n1` (stereo not drawn): the GI50 in [1], in test [2], in [3], in test [4], in test [5] and in [6] was > 100 µM (inactive) throughout. The GI50 in test [7] was over 100 µM; in test [8], > 100 µM (inactive); in test [9], > 100 µM (inactive); in test [10] it was > 100 µM (inactive); in test [11], > 100 µM (inactive); in test [12], > 100 µM (inactive). Also, the GI50 in test [13] and in test [14] was > 100 µM (inactive) throughout.

As for `CCCCCCCCCOC(=S)NC`, the GI50 in test [1] is 27.8 µM (inactive); in [2] it was 20.1 µM (inactive); in test [3], 20.6 µM (inactive); in test [4], 24.8 µM (inactive); in test [5], 14.7 µM (inactive); in test [6], 18.8 µM (inactive). Also, the GI50 in test [7] was 18.7 µM; in test [15], 19.9 µM (inactive); in test [8] it was 19.7 µM (inactive); in [9], 20.9 µM (inactive); in test [10] it was 28.1 µM (inactive); in test [11] it was 21.1 µM (inactive). For the same molecule, the GI50 in test [16] was 25.6 µM (inactive); in test [12] it was 23.2 µM (inactive); in [13], 19.1 µM (inactive).

On to `NNC(=O)CCC(=O)Nc1ccc(Cl)cc1Cl`, for which the GI50 in test [1], in test [2], in [3], in test [4], in test [5] and in test [6] was > 100 µM (inactive) each time. The GI50 is 66.2 µM in test [7]; > 100 µM (inactive) in test [15]; > 100 µM (inactive) in test [8]; > 100 µM (inactive) in [9]; 45.1 µM (inactive) in [11]; > 100 µM (inactive) in [16]. Moreover, the GI50 is 28.8 µM (inactive) in [12], > 100 µM (inactive) in test [13] and > 100 µM (inactive) in [14].

For `O=[N+]([O-])c1cccc(/C=N\NS(=O)(=O)c2ccc(Cl)cc2)c1O`, the GI50 was > 100 µM (inactive) in test [1]; > 100 µM (inactive) in test [2]; > 100 µM (inactive) in [3]; > 100 µM (inactive) in test [4]; 31.8 µM (inactive) in [5]; 79.4 µM (inactive) in test [6]. Also, the GI50 was 52.5 µM in [7]; 65.8 µM (inactive) in test [15]; 82.8 µM (inactive) in [8]; > 100 µM (inactive) in [9]; > 100 µM (inactive) in test [10]; 90.8 µM (inactive) in test [11]. Besides, the GI50 is > 100 µM (inactive) in [16], 49.7 µM (inactive) in test [12], > 100 µM (inactive) in test [13] and 50.4 µM (inactive) in [14].

As to `O=C(c1ccccc1)[C@H]1Nc2cnccc2C2c3ccccc3CC21` (stereo partly drawn), the GI50 in test [1] is 18.2 µM (inactive); in [2], 25.9 µM (inactive); in test [3], 19.4 µM (inactive); in test [4] it was 21.9 µM (inactive); in [5], 2.78 µM (inactive); in test [6], 8.24 µM (inactive). The GI50 in test [7] was 8.95 µM; in test [15] it was 7.69 µM (inactive); in test [8], 15.1 µM (inactive); in test [9], 17.9 µM (inactive); in test [10] it was 19.9 µM (inactive); in [11], 6.82 µM (inactive). For the same molecule, the GI50 was 42.1 µM (inactive) in test [16], 16.9 µM (inactive) in test [12], 39.4 µM (inactive) in test [13] and 3.81 µM (inactive) in test [14].

With `CN(C)C1=NC2=S(SC(Nc3ccccc3)=N2)S1` (stereo not drawn), the GI50 is 24.5 µM (inactive) in [1]; 14.6 µM (inactive) in test [2]; 33.6 µM (inactive) in test [3]; 7.85 µM (inactive) in test [4]; 10.3 µM (inactive) in [5]; 26.6 µM (inactive) in [6]. In addition, the GI50 in [7] is 11.9 µM; in test [8] it was 36.1 µM (inactive); in test [9] it was 46.5 µM (inactive); in test [10], 12.9 µM (inactive); in test [11] it was 58.1 µM (inactive); in [16] it was 26.4 µM (inactive). In addition, the GI50 in [12] is 21.2 µM (inactive); in test [13], 21 µM (inactive); in test [14], 10.5 µM (inactive).

As for `O=C(Nc1cc(Cl)ccc1Cl)c1cc2cccc(Br)c2oc1=O`, the GI50 in test [1] was 63.4 µM (inactive); in test [3], > 100 µM (inactive); in test [4], > 100 µM (inactive); in test [5], > 100 µM (inactive); in test [6], 57.1 µM (inactive); in [7], over 100 µM. Also, the GI50 in test [15] was 59.8 µM (inactive); in test [8], > 100 µM (inactive); in test [9], > 100 µM (inactive); in [10], > 100 µM (inactive); in test [11], > 100 µM (inactive); in test [16] it was > 100 µM (inactive). Also, the GI50 in [12] and in [14] was > 100 µM (inactive) in each case.

For `CCCCNC(=S)OCCC(C)CCCC(C)C` (stereo not drawn), the GI50 in [1] was > 100 µM (inactive); in test [2], > 100 µM (inactive); in test [3] it was > 100 µM (inactive); in test [4] it was > 100 µM (inactive); in test [6] it was > 100 µM (inactive); in test [7], over 100 µM. Besides, the GI50 in test [8], in test [9], in test [10], in test [11], in test [16] and in [12] was > 100 µM (inactive) each time. In addition, the GI50 in test [13] and in [14] was > 100 µM (inactive) in each case.

`CCN(CC)CC(=O)NC1c2ccccc2Oc2ccccc21`: the GI50 in test [3] is > 100 µM (inactive); in [4], > 100 µM (inactive); in test [6], > 100 µM (inactive); in test [7] it was over 100 µM; in test [8], > 100 µM (inactive); in test [9], > 100 µM (inactive). For the same molecule, the GI50 in test [10], in [11], in test [12], in test [13] and in test [14] was > 100 µM (inactive) throughout.

Turning to `O=C(CCC/C(CC(=O)c1ccc(Br)cc1)=N\O)Nc1ccccc1`, the GI50 in [1] is > 100 µM (inactive); in test [3], 57.4 µM (inactive); in test [4], > 100 µM (inactive); in test [6], > 100 µM (inactive); in [15], > 100 µM (inactive); in test [8], > 100 µM (inactive). In addition, the GI50 in test [9] is > 100 µM (inactive); in test [10], > 100 µM (inactive); in test [11] it was > 100 µM (inactive); in test [16] it was > 100 µM (inactive); in test [12], 46 µM (inactive); in test [13], > 100 µM (inactive). Also, the GI50 in test [14] was > 100 µM (inactive).

In the case of `CC1CCC2c3c([nH]c4ccccc34)C3C(=O)N(c4ccccc4)C(=O)C3C2C1` (stereo not drawn), the GI50 in test [1] was 15 µM (inactive); in test [2], 43.8 µM (inactive); in test [3], > 250 µM (inactive); in [4], 90.8 µM (inactive); in [5], 142 µM (inactive); in test [6] it was 43.5 µM (inactive). Moreover, the GI50 in test [7] was over 250 µM; in test [15] it was 49.8 µM (inactive); in [8] it was > 250 µM (inactive); in test [9] it was > 250 µM (inactive); in test [10], > 250 µM (inactive); in [11], 46.1 µM (inactive). Besides, the GI50 is > 250 µM (inactive) in [16], 30.1 µM (inactive) in test [12], 106 µM (inactive) in [13] and 80.2 µM (inactive) in [14].

Regarding `C/C(CC(=O)Nc1cccc([N+](=O)[O-])c1)=N\NC(=O)C[n+]1ccccc1`, the GI50 in test [1], in test [3], in test [4], in test [5], in test [6] and in [15] was > 100 µM (inactive) each time. Further, the GI50 in [8], in [9], in test [10], in [11], in test [16] and in test [12] was > 100 µM (inactive) throughout. Further, the GI50 in test [13] and in test [14] was > 100 µM (inactive) in each case.

In the case of `CC(=O)Nc1ccc(/C=C/C(=O)c2sc(-c3cccnc3)nc2C)cc1`, the GI50 in [1], in test [2], in [3], in test [4], in [5] and in test [6] was > 100 µM (inactive) each time. Also, the GI50 in [7] is over 100 µM; in [15], > 100 µM (inactive); in [8], > 100 µM (inactive); in [9] it was > 100 µM (inactive); in [10], > 100 µM (inactive); in test [16] it was > 100 µM (inactive). The GI50 in [12] and in [13] was > 100 µM (inactive) in each case.

Consider `CSc1cccc(-n2c3nc(=O)n(C)c(=O)c-3nc3ccccc32)c1`, for which the GI50 was 10.8 µM (inactive) in test [1]; 12.6 µM (inactive) in test [2]; 2.51 µM (inactive) in test [3]; 2.65 µM (inactive) in [4]; 14.7 µM (inactive) in [5]; 8.83 µM (inactive) in test [6]. Further, the GI50 is 5.02 µM in test [7]; 2.26 µM (inactive) in [15]; 2.4 µM (inactive) in test [8]; 3.78 µM (inactive) in test [9]; 19.3 µM (inactive) in test [10]; 2.7 µM (inactive) in [11]. In addition, the GI50 is 12.9 µM (inactive) in test [16], 1.95 µM (inactive) in test [12], 4.03 µM (inactive) in test [13] and 7.29 µM (inactive) in test [14].

Values taken from ChEMBL document CHEMBL1201862, “PubChem BioAssay data set” (2004).
